# Assay results taken from patent publication US20240173298A1, “COMPOSITION FOR AMELIORATING OR SUPPRESSING DECLINE OF KIDNEY FUNCTIONS” (SUNTORY HOLDINGS LIMITED, priority 2021, published 2024).
# Assays:
# [1] = mice, oral administration, versus mice not administered; cited from earlier work
# [2] = Study on evaluation of blood renal function markers in humans (placebo-controlled, randomized, double-blind, parallel-group); format: in vivo; conditions: one capsule with 20 mg L-ergothioneine per day, oral, four weeks, week 4 minus pre-testing, versus control food group
# Protocol: In order to evaluate the influence of supplements containing ergothioneine on blood renal function marker levels in humans, a placebo-controlled, randomized, double-blind, parallel-group study was conducted on subjects including male and female adults (46 subjects in a test food group; 46 subjects in a control food group; 92 subjects in total). In this study, one capsule containing 20 mg ergothioneine (test food) or one capsule not containing ergothioneine (control food) was fed per day for four weeks. Blood renal function marker levels of each subject were measured for pre-testing before starting the study (before starting ingestion of the test food or control food). After ingestion of the test food or control food for four weeks, blood renal function marker levels of each subject were measured again (testing on week 4). Renal function markers used for measurement were BUN, uric acid, and creatinine. […] For each subject, the BUN level measured at the time of pre-testing was subtracted from the BUN level measured at the time of testing on week 4 ((level measured at the time of testing on week 4)—(level measured at the time of pre-testing)) to determine Δ in level (the amount of change in BUN level) (mg/dL). […] For each subject, the uric acid level measured at the time of pre-testing was subtracted from the uric acid level measured at the time of testing on week 4 ((level measured at the time of testing on week 4)−(level measured at the time of pre-testing)) to determine Δ in level (the amount of change in uric acid level) (mg/dL). […] For each subject, the creatinine level measured at the time of pre-testing was subtracted from the creatinine level measured at the time of testing on week 4 ((level measured at the time of testing on week 4)−(level measured at the time of pre-testing)) to determine Δ in level (the amount of change in creatinine level) (mg/dL). […]
compound,measurement,setting,value
C[N+](C)(C)[C@@H](Cc1c[nH]c(=S)[nH]1)C(=O)[O-] [L-ergothioneine],peritesticular fat weight,[1],lower
same,triglyceride (neutral fat) level in plasma,[1],lower
same,change in BUN level (Δ in BUN),[2],reduced
same,change in blood creatinine level (Δ in creatinine),[2],reduced
same,change in blood uric acid level (Δ in uric acid),[2],reduced
